Source: US8211939B2, “Isosorbide nitrates” (Lacer, S.A., priority 2008, dated 2012)
Where two headings read alike, the source gives them in different places.

Assays:
[1] = system: coronary angina caused by coronary obstruction (35% ferric chloride patch on left anterior descending coronary artery); test: Anti-anginal activity, ferric chloride-induced coronary angina (ECG S-wave); type: in vivo, Male Wistar rats; settings: Rattus norvegicus, po, read-out: Antianginal activity (% inhibition of S-wave decrease)
Method: Anti-Anginal Activity Assessment
Male Wistar rats weighing 250-300 g were used after an acclimatization period of five days, and animals were divided in groups of 8 for each treatment. In all experiments, rats were treated with 90 μmol/kg of each product by oral gavage using an administration volume of 10 ml/kg unless otherwise stated. The vehicle used to dissolve the products consisted of 1% Cremophor EL 27963, 1% Tween 80 and 0.5% Methocel E-15 in distilled water. […]
The procedure used to test the anti-anginal activity was that described by Hirata Y et al (Hirata Y, et al. Journal of Cardiovascular Pharmacology 1998, 31: 322-326).
After treatment, animals were anaesthetized with pentobarbital and electrodes were set for standard limb lead II electrocardiogram recording (Grass polygraph model 7, amplifier 7DA and pre-amplifier 7P1).
To induce coronary angina caused by coronary obstruction, a 35%-ferric chloride embedded mini patch was applied onto the left anterior descending coronary artery just below the left auricle. In all groups, after application of the patch, the ECG was recorded during 10 minutes. The shortening of the S-wave amplitude was measured on the recorded ECG. Data were collected with a Biopac system model MP100 connected to a Pentium PC. Results were expressed as % inhibition of S-wave decrease vs the untreated control.

[2] = system: thrombus formation in the carotid artery (70% FeCl3 patch); test: Anti-thrombotic activity, FeCl3-induced carotid artery thrombosis; type: in vivo, Male Wistar rats; settings: % animals protected; for responders at 90 µmol/kg / Antithrombotic activity (% protection): 90 μmol/kg p.o.
Method: Anti-Thrombotic Activity Assessment Experimental Procedure Male Wistar rats weighing 250-300 g were used after an acclimatization period of five days, and animals were divided in groups of 8 animals each for the treatments. […] The vehicle used to dissolve the products consisted of 1% Cremophor EL 27963, 1% Tween 80 and 0.5% Methocel E-15 in distilled water. After a fasting period of 8 hours with free access to drinking water each product was given by gavage 1 hour before induction of thrombosis. Thrombus formation was induced using a patch embedded with 70% FeCl3 solution applied onto the carotid artery using the same procedure described by Feuerstein G Z et al and later modified by Kurz et al (Feuerstein G Z, et al Artherioscler. Thromb. Vasc. Biol. 1999, 19: 2554-2562, Kurz K D, et al Thromb. Res. 1990, 60:269-280). Anti-thrombotic efficacy was evaluated at different times after dosage. Rats were anesthetized with sodium pentobarbital and then placed on a dorsal position over a thermal blanket laid on a surgical board and heated at 37° C. The left carotid artery was dissected and an electromagnetic blood flow probe was placed on the artery to measure blood flow. After application of the thrombotic stimuli, blood flow was monitored for the following 30 minutes. The vessel was considered occluded by the thrombus when flow reached 0.0 ml/min. Data were analysed by contingency tables using the Graph Pad Prism Program. P values were calculated using Fisher's exact test, values of p<0.05 were considered statistically significant. Results were expressed as % animals protected.

[3] = 1 h, rat, 90 μmol/kg p.o., 1 h, vs untreated control
[4] = 4 h, rat, 90 μmol/kg p.o., 4 h, vs untreated control
[5] = Rattus norvegicus, po, 0.5 h, ½ h after dosage, read-out: Antithrombotic activity (% protection)
[6] = Rattus norvegicus, po, 1 h, 1 h after dosage, read-out: Antithrombotic activity (% protection)
[7] = Rattus norvegicus, po, 2 h, 2 h after dosage, read-out: Antithrombotic activity (% protection)
[8] = Rattus norvegicus, po, 4 h, 4 h after dosage, read-out: Antithrombotic activity (% protection)

Structure (SMILES) | inhibition in vivo at 90 µmol/kg [1, 3] [%] | responders at 90 µmol/kg [2, 6] [%] | responders at 90 µmol/kg [2, 7] [%] | responders at 90 µmol/kg [2, 8] [%] | further results
CC(=O)S[C@@H]1CO[C@H]2[C@@H]1OC[C@H]2O[N+](=O)[O-] [Ej. 10, S-(3R,3aS,6R,6aS)-6-(nitrooxy)hexahydrofuro[3,2-b]furan-3-yl ethanethioate] | 69 | 75 | 83 | 40 | inhibition in vivo at 90 µmol/kg [1, 4]: 57%; responders at 90 µmol/kg [2, 5]: 67%
CC[S+]([O-])[C@@H]1CO[C@H]2[C@@H]1OC[C@H]2O[N+](=O)[O-] (single isomer, unassigned) [Ej. 13 isom 2] |  |  |  |  | Antithrombotic activity (% protection) ([2]; rat, 1 h after dosage): 83%; Antithrombotic activity (% protection) ([2]; rat, 4 h after dosage): 16%
O=[N+]([O-])O[C@@H]1CO[C@H]2[C@@H]1OC[C@@H]2S [Comp 1, (3R,3aS,6S,6aS)-6-(mercapto)hexahydrofuro[3,2-b]furan-3-yl nitrate, reference compound] | 0 |  | 32 | 16 | inhibition in vivo at 90 µmol/kg ([1]; 0.5 h, rat, 90 μmol/kg p.o., ½ h, vs untreated control): 0%; inhibition in vivo at 90 µmol/kg ([1]; 2 h, rat, 90 μmol/kg p.o., 2 h, vs untreated control): 50%; responders at 230 µmol/kg ([2]; Rattus norvegicus, po, 1 h, 230 μmol/kg p.o., 1 h after dosage, read-out: Antithrombotic activity (% protection)): 50%
CCS(=O)(=O)[C@H]1CO[C@H]2[C@@H]1OC[C@H]2O[N+](=O)[O-] [Ej. 7, (3R,3aS,6S,6aS)-6-(ethylsulfonyl)hexahydrofuro[3,2-b]furan-3-yl nitrate] | 81 | 84 | 32 | 0 | inhibition in vivo at 90 µmol/kg [1, 4]: 23%; responders at 90 µmol/kg [2, 5]: 50%
C=CCS[C@H]1CO[C@H]2[C@@H]1OC[C@H]2O[N+](=O)[O-] [Ej. 3, (3R,3aS,6S,6aS)-6-(allylthio)hexahydrofuro[3,2-b]furan-3-yl nitrate] |  | 67 |  |  | 
CCCCS[C@H]1CO[C@H]2[C@@H]1OC[C@H]2O[N+](=O)[O-] [Comp 10, (3R,3aS,6S,6aS)-6-(butylthio)hexahydrofuro[3,2-b]furan-3-yl nitrate, reference compound] |  | 40 |  |  | 
O=[N+]([O-])O[C@@H]1CO[C@H]2[C@@H]1OC[C@@H]2SCc1ccccc1 [Comp 2, (3R,3aS,6S,6aS)-6-(benzylthio)hexahydrofuro[3,2-b]furan-3-yl nitrate, reference compound] |  | 33 |  |  | 
CCS[C@H]1CO[C@H]2[C@@H]1OC[C@H]2O[N+](=O)[O-] [Ej. 1, (3R,3aS,6S,6aS)-6-(ethylthio)hexahydrofuro[3,2-b]furan-3-yl nitrate] |  |  |  |  | inhibition in vivo at 90 µmol/kg ([1]; 1 h): 29%; inhibition in vivo at 90 µmol/kg ([1]; 4 h): 0%; responders at 90 µmol/kg ([2]; po, rat, 1 h after dosage, read-out: Antithrombotic activity (% protection)): 32%
C=CC[S+]([O-])[C@H]1CO[C@H]2[C@@H]1OC[C@H]2O[N+](=O)[O-] (stereo partly drawn) [Ej. 6, (3R,3aS,6S,6aS)-6-((R,S)-allylsulfinyl)hexahydrofuro[3,2-b]furan-3-yl nitrate] |  | 67 | 34 | 17 | 
CCOC(=O)C[S+]([O-])[C@H]1CO[C@H]2[C@@H]1OC[C@H]2O[N+](=O)[O-] (some centres unmarked) [Comp 5, reference compound] |  | 16 | 0 | 0 | 
CC[S+]([O-])[C@H]1CO[C@H]2[C@@H]1OC[C@H]2O[N+](=O)[O-] (stereo partly drawn) [Ej. 4, (3R,3aS,6S,6aS)-6-((R,S)-ethylsulfinyl)hexahydrofuro[3,2-b]-furan-3-yl nitrate] | 84 | 67 | 83 | 50 | inhibition in vivo at 90 µmol/kg [1, 4]: 43%; responders at 90 µmol/kg [2, 5]: 32%
C[S@@+]([O-])[C@H]1CO[C@H]2[C@@H]1OC[C@H]2O[N+](=O)[O-] [Comp 6, (3R,3aS,6S,6aS)-6-((R)-methylsulfinyl)hexahydrofuro[3,2-b]furan-3-yl nitrate, reference compound] | 48 | 16 | 0 | 0 | inhibition in vivo at 90 µmol/kg [1, 4]: 0%; responders at 90 µmol/kg [2, 5]: 40%
CC[S+]([O-])[C@@H]1CO[C@H]2[C@@H]1OC[C@H]2O[N+](=O)[O-] (single isomer, unassigned) [Ej. 13 isom 1] |  |  |  | 16 | Antithrombotic activity (% protection) ([2]; rat, 1 h after dosage): 32%
CCCC[S+]([O-])[C@H]1CO[C@H]2[C@@H]1OC[C@H]2O[N+](=O)[O-] (stereo partly drawn) [Comp 11, (3R,3aS,6S,6aS)-6-((R,S)-butylsulfinyl)hexahydrofuro[3,2-b]furan-3-yl nitrate, reference compound] |  | 32 |  |  | 
CCCS[C@H]1CO[C@H]2[C@@H]1OC[C@H]2O[N+](=O)[O-] [Ej. 2, (3R,3aS,6S,6aS)-6-(propylthio)hexahydrofuro[3,2-b]furan-3-yl nitrate] | 69 | 67 |  |  | inhibition in vivo at 90 µmol/kg [1, 4]: 8%
CCC[S+]([O-])[C@H]1CO[C@H]2[C@@H]1OC[C@H]2O[N+](=O)[O-] (stereo partly drawn) [Ej. 5, (3R,3aS,6S,6aS)-6-((R,S)-propylsulfinyl)hexahydrofuro[3,2-b]furan-3-yl nitrate] | 87 | 76 | 67 | 50 | inhibition in vivo at 90 µmol/kg [1, 4]: 58%; responders at 90 µmol/kg [2, 5]: 40%
C=CCS(=O)(=O)[C@H]1CO[C@H]2[C@@H]1OC[C@H]2O[N+](=O)[O-] [Ej. 9, (3R,3aS,6S,6aS)-6-(allylsulfonyl)hexahydrofuro[3,2-b]furan-3-yl nitrate] |  | 83 | 50 | 0 | 
O=[N+]([O-])O[C@@H]1CO[C@H]2[C@@H]1OC[C@@H]2S(=O)(=O)Cc1ccccc1 [Comp 8, (3R,3aS,6S,6aS)-6-(benzylsulfonyl)hexahydrofuro[3,2-b]furan-3-yl nitrate, reference compound] |  | 33 |  |  | 
O=[N+]([O-])O[C@@H]1CO[C@H]2[C@@H]1OC[C@@H]2[S+]([O-])Cc1ccccc1 (stereo partly drawn) [Comp 4, (3R,3aS,6S,6aS)-6-((R,S)-benzylsulfinyl)hexahydrofuro[3,2-b]furan-3-yl nitrate, reference compound] |  | 20 | 0 | 0 | 
CCCCS(=O)(=O)[C@H]1CO[C@H]2[C@@H]1OC[C@H]2O[N+](=O)[O-] [Comp 12, (3R,3aS,6S,6aS)-6-(butylsulfonyl)hexahydrofuro[3,2-b]furan-3-yl nitrate, reference compound] |  | 40 |  |  | 
CCOC(=O)CS[C@H]1CO[C@H]2[C@@H]1OC[C@H]2O[N+](=O)[O-] [Comp 3, Ethyl 2-((3S,3aS,6R,6aS)-6-(nitrooxy)hexahydrofuro[3,2-b]furan-3-ylthio)acetate, reference compound] |  | 32 |  |  | 
